Test results as given in ChEMBL document CHEMBL5465560, “Selectivity Literature for EUbOPEN Chemogenomic Library” (2024).

Key:
[1] = target: T1, Calcium/calmodulin-dependent protein kinase type IV (Homo sapiens) (UniProt Q16566); assay: Selectivity interaction (KinomeScan (DiscoverX)) EUB0001049a CAMK4; conditions: at 1 µM
T1 sequence (whole entry): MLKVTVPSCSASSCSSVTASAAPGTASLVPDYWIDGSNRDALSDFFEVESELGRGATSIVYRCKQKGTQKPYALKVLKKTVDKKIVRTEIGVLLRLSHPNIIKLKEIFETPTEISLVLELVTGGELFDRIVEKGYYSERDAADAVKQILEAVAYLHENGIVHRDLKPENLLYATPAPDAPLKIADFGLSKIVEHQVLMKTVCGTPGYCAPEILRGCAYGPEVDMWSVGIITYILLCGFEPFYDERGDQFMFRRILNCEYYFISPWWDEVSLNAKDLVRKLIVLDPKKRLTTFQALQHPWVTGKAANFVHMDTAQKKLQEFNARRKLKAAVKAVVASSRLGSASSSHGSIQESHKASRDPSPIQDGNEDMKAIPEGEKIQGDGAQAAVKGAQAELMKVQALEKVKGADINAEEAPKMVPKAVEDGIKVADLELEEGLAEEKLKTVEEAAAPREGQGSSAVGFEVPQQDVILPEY

[2] = target: T2, Cyclin-dependent kinase-like 5 (Homo sapiens) (UniProt O76039); assay: Selectivity interaction (KinomeScan (DiscoverX)) EUB0000229b CDKL5; conditions: at 10 µM
T2 sequence (whole entry): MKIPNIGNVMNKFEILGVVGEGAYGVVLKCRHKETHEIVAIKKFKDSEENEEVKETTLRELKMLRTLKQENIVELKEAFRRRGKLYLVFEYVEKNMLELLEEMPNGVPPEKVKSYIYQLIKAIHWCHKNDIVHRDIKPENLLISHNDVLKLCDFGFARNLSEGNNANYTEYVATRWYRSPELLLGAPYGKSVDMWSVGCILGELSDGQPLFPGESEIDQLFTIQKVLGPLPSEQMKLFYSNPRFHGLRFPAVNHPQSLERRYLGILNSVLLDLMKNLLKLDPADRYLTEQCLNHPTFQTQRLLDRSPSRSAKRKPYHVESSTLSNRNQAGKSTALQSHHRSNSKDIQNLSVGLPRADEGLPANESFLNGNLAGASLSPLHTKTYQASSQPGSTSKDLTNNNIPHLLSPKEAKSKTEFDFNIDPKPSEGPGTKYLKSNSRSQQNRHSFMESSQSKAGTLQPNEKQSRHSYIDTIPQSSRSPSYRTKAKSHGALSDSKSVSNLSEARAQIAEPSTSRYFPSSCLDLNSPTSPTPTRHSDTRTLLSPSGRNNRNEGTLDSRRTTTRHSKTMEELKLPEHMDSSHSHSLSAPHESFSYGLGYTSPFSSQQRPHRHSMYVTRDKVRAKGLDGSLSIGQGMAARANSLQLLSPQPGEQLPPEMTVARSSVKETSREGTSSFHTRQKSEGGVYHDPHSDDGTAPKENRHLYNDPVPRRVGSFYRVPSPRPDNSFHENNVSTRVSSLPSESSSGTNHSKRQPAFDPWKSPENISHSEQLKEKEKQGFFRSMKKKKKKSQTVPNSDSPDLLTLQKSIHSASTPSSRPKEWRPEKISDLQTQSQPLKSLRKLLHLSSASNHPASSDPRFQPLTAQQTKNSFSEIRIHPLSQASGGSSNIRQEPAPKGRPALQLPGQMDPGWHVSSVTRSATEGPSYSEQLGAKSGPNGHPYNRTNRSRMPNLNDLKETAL

[3] = target: Ribosomal protein S6 kinase alpha-2 (Homo sapiens) (UniProt Q15349); assay: Selectivity interaction (ActivX KiNativ screen (kinase selectivity in THP-1 cell lysates)) EUB0000639a RPS6KA2; format: subcellular; conditions: lysate, at 5 µM
Chain of Ribosomal protein S6 kinase alpha-2 (Homo sapiens) (Q15349 whole entry): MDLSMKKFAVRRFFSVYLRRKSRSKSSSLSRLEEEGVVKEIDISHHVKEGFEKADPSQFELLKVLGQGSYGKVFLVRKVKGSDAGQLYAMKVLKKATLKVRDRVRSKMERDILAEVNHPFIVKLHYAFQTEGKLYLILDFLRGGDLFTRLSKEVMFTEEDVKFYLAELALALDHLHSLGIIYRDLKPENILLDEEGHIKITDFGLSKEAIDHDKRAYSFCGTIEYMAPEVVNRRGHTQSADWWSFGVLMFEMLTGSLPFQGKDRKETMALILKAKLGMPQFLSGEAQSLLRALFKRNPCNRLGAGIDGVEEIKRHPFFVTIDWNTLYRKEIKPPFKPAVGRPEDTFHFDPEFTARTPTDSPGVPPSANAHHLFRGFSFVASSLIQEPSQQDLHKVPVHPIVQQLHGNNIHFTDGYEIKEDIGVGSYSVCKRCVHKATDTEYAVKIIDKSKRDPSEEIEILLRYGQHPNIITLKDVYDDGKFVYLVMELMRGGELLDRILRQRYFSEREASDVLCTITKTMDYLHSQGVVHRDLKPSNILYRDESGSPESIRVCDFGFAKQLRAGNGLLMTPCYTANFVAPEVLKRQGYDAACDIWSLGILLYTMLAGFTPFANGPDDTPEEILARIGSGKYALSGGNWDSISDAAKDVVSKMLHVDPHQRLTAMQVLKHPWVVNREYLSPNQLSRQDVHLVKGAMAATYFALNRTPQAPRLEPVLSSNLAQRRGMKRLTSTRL

[4] = target: MAP/microtubule affinity-regulating kinase 3 (Homo sapiens) (UniProt P27448); assay: Selectivity interaction (ActivX KiNativ screen (kinase selectivity in THP-1 cell lysates)) EUB0000639a MARK3; format: subcellular; conditions: lysate, at 0.04 µM
Chain of MAP/microtubule affinity-regulating kinase 3 (Homo sapiens) (P27448 whole entry, looked up): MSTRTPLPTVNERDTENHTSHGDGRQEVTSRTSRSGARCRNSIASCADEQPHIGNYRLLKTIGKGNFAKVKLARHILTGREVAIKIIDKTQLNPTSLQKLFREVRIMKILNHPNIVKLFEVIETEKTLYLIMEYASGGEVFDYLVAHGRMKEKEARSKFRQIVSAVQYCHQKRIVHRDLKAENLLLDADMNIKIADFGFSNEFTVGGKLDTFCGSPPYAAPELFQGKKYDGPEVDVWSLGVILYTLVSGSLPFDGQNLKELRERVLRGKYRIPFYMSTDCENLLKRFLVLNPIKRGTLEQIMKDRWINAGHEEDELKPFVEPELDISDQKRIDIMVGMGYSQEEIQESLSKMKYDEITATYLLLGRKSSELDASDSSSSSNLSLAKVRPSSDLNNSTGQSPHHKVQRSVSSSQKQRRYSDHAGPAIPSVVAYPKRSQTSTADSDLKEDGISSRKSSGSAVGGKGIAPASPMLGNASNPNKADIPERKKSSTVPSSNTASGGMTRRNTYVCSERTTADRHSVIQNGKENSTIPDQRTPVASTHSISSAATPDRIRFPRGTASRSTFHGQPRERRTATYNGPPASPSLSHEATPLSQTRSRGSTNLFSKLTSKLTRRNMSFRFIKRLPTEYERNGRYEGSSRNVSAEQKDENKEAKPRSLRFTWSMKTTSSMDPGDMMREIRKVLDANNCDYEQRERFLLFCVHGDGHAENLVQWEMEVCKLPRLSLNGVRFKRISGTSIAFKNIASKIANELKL

[5] = target: T3, Tyrosine-protein kinase ITK/TSK (Homo sapiens) (UniProt Q08881); assay: Selectivity interaction (Kinase panel (Invitrogen)) EUB0000639a ITK; conditions: at 200 nM
T3 sequence (whole entry): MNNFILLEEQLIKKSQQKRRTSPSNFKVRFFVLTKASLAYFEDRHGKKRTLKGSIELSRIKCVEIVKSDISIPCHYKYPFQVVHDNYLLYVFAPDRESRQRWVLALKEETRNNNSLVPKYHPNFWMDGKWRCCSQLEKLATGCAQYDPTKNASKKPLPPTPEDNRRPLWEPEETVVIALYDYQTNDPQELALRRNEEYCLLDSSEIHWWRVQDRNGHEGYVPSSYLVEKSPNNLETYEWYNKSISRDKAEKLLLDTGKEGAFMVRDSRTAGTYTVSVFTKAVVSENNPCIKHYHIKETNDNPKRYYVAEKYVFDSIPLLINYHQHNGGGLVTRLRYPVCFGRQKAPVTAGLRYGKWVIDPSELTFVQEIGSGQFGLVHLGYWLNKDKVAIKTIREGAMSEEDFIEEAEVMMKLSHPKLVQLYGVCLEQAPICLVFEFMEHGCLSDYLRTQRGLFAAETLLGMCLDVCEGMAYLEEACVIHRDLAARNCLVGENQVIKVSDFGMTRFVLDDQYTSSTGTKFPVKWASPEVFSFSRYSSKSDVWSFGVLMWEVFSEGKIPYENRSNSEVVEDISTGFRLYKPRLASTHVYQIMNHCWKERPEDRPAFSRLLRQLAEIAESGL

[6] = target: Tyrosine-protein kinase Lck (Homo sapiens, UniProt P06239); assay: Selectivity interaction (KinomeScan (DiscoverX)) EUB0000092b LCK; conditions: at 10 µM
Chain of Tyrosine-protein kinase Lck (P06239 2-509 limits assumed): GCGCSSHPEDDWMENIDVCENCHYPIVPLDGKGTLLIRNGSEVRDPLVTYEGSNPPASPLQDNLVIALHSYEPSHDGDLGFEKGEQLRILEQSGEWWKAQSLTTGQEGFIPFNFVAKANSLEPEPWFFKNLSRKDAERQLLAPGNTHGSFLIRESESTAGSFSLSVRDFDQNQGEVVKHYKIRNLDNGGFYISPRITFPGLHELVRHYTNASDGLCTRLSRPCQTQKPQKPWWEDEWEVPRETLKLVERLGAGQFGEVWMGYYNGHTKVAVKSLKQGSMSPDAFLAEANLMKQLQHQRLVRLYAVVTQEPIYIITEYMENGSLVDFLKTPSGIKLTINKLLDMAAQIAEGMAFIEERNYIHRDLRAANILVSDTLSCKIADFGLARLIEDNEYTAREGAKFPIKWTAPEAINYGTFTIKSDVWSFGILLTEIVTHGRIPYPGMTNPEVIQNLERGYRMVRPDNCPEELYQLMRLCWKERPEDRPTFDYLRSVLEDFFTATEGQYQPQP

[7] = target: Serine/threonine-protein kinase 10 (Homo sapiens) (UniProt O94804); assay: Selectivity interaction (ActivX KiNativ screen (ex vivo kinase selectivity in human PBMCs)) EUB0001619a STK10; format: cell-based; conditions: PBMC, at 1 µM
Chain of Serine/threonine-protein kinase 10 (Homo sapiens) (O94804 whole entry, looked up): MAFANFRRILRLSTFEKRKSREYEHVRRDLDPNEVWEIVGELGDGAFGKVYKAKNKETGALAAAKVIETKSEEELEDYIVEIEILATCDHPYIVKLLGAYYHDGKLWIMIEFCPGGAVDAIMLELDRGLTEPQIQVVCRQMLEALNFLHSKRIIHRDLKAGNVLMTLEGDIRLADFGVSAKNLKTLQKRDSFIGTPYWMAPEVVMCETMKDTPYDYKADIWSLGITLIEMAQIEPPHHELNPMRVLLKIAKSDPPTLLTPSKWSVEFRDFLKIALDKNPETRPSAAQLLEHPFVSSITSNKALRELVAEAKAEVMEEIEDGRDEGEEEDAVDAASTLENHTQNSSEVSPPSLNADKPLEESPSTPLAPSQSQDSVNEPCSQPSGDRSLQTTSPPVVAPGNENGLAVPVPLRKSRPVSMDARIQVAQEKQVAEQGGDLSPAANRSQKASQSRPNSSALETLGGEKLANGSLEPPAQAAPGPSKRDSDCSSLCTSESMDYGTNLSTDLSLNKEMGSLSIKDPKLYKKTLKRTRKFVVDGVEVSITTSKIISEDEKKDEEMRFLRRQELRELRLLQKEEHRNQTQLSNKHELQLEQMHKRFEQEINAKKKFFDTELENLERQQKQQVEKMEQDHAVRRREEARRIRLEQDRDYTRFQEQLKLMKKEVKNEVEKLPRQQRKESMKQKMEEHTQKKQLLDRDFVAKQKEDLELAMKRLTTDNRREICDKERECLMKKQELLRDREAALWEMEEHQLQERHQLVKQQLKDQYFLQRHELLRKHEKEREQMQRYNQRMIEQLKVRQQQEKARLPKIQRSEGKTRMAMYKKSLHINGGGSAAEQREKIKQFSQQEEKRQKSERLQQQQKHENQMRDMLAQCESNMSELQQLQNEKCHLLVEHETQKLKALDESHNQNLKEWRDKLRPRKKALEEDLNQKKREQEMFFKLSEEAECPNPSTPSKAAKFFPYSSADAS

[8] = target: T4, cAMP-dependent protein kinase catalytic subunit PRKX (Homo sapiens) (UniProt P51817); assay: Selectivity interaction (KinomeScan (DiscoverX)) EUB0000655a PRKX; conditions: at 10 µM
T4 sequence (whole entry): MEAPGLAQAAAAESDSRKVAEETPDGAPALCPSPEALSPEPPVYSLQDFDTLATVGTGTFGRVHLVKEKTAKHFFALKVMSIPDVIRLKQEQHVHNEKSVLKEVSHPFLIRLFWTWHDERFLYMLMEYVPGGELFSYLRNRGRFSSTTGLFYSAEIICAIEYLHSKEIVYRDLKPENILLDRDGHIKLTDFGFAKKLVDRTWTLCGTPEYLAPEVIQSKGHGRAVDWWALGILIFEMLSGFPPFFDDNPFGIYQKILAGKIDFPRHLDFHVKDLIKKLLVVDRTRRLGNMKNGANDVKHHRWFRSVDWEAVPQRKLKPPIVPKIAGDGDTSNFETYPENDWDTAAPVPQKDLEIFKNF

[9] = target: Serine/threonine-protein kinase PLK2 (Homo sapiens, UniProt Q9NYY3); assay: Selectivity interaction (KinomeScan (DiscoverX)) EUB0000695a PLK2; conditions: at 100 nM
Chain of Serine/threonine-protein kinase PLK2 (Q9NYY3 whole entry, looked up): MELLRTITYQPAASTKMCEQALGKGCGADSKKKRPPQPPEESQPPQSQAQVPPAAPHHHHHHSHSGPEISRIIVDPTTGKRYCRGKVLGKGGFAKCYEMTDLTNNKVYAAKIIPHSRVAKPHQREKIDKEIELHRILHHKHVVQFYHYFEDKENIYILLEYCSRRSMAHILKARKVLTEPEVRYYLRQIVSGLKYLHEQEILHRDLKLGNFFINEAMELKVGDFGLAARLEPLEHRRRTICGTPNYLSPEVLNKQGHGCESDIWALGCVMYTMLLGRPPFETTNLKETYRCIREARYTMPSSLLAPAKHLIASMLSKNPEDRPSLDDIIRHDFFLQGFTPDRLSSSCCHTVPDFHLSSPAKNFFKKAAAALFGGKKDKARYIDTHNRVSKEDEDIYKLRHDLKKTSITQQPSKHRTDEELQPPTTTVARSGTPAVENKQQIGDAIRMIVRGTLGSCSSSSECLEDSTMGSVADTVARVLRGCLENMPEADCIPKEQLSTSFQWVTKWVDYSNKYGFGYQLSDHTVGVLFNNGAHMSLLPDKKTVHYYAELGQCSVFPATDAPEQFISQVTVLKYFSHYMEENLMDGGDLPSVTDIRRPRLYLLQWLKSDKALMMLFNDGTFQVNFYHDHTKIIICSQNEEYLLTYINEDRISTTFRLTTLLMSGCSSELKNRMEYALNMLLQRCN

## COc1cc(Nc2nc(C)cc(-c3cnn4nc(OC)ccc34)n2)cc(C(F)(F)F)c1
[1]
  % of control: 100%

## COc1cc(N(C)c2ccnc3ccc(C(F)(F)F)cc23)cc(OC)c1OC
[2]
  % binding: 86%

## CC[C@@H]1[C@H](F)C(=O)N[C@@H]1COc1nccc2cc(C(N)=O)c(OC)cc12 [ZIMLOVISERTIB]
[3]
  % of inhibition: 6.4%
[4]
  % of inhibition: -13.3%
[5]
  % of inhibition: -1.94%

## CCC(=O)N1CCN(c2ccc(-n3c(=O)ccc4cnc5ccc(-c6cnc7ccccc7c6)cc5c43)cc2C(F)(F)F)CC1
[6]
  % of control: 77%

## N#Cc1cccc(-c2c[nH]c3ncnc(N4CCOCC4)c23)c1
[7]
  % of inhibition: 54%

## CN(C)CCOc1ccc(-c2nc(-c3ccncc3)c(-c3ccc4c(c3)CC/C4=N\O)[nH]2)cc1
[8]
  % of control: 94%

## Cc1cc(F)c(C(=O)Nc2cccc(-c3nncn3C(C)C)n2)cc1-n1cnc(C2CC2)c1
[9]
  % of control: 88%
